Reference: patent publication US8158628B2, “Sulfonylated 1,2,3,4-tetrahydropyrrolo[1,2-a]pyrazine compounds and their use as pharmaceuticals” (Gruenenthal GmbH, priority 2009, dated 2012)

What was measured:
human B1R = biological target: T1, human B1R (Homo sapiens, UniProt P46663); test: FLIPR Ca2+ functional assay, B1R antagonism, human B1R in CHO K1 cells; assay type: cell-based; conditions: test substance 10 μM; hB1R CHO K1 cells; agonist Lys-Des-Arg9 bradykinin at EC80; % of maximum achievable inhibition
T1 construct: expressed in transfected cells; host or cells: CHO K1 cells (Chinese hamster ovary), stably transfected
T1 sequence (P46663 1-353): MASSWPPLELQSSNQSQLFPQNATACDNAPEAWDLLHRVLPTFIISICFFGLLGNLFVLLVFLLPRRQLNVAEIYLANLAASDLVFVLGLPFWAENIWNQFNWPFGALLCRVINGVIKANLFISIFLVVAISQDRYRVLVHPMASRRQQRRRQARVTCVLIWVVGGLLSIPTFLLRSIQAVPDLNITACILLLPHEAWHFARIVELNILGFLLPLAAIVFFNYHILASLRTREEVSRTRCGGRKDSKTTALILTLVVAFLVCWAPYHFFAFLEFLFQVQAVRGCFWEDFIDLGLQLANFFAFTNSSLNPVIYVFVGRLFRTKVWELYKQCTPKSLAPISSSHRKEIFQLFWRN
Method: The agonistic or antagonistic action of substances on the bradykinin 1 receptor (B1R) of the human and rat species can be quantified with ectopically expressing cell lines (CHO K1 cells) and with the aid of a Ca^2+-sensitive dye (Fluo-4) using a fluorescent imaging plate reader (FLIPR). The value in % activation is based on the Ca^2+ signal after addition of Lys-Des-Arg^9 bradykinin (0.5 nM) or Des-Arg^9 bradykinin (100 nM). Antagonists lead to a suppression of the Ca^2+ influx following administration of the agonist. The % inhibition in comparison with the maximum achievable inhibition is indicated.
1. Functional Investigation on the Bradykinin 1 Receptor (B1R) The agonistic or antagonistic action of substances can be determined on the bradykinin 1 receptor (B1R) of the human and rat species with the following assay. According to this assay, the Ca^2+ inflow through the channel is quantified with the aid of a Ca^2+-sensitive dye (Fluo-4 type, Molecular Probes Europe BV, Leiden, Netherlands) in a fluorescent imaging plate reader (FLIPR, Molecular Devices, Sunnyvale, USA). 2. Method: Chinese hamster ovary cells (CHO K1 cells) which are stably transfected with the human B1R gene (hB1R cells) or the B1R gene of the rat (rB1R cells) are used. For functional investigations these cells are plated-out onto black 96-well plates with a clear base (BD Biosciences, Heidelberg, Germany or Greiner, Frickenhausen, Germany) in a density of 20,000-35,000 cells/well. Overnight the cells are incubated at 37° C. and 5% CO2 in culture medium (hB1R cells: Ham's Nutrient Mixture F12, Gibco Invitrogen GmbH, Karlsruhe, Germany or DMEM, Sigma-Aldrich, Taufkirchen, Germany; rB1R cells: D-MEM/F12, Gibco Invitrogen, Karlsruhe, Germany) with 10 vol. % FBS (foetal bovine serum, Gibco Invitrogen GmbH, Karlsruhe, Germany or PAN Biotech GmbH, Aidenbach, Germany).
On the following day the cells are loaded with 2.13 μM Fluo-4 (Molecular Probes Europe BV, Leiden, Netherlands) in HBSS buffer (Hank's buffered saline solution, Gibco Invitrogen GmbH, Karlsruhe, Germany) with 2.5 mM probenecid (Sigma-Aldrich, Taufkirchen, Germany) and 10 mM HEPES (Sigma-Aldrich, Taufkirchen, Germany) for 60 min at 37° C. The plates are subsequently washed twice with HBSS buffer, and HBSS buffer which additionally contains 0.1% BSA (bovine serum albumin; Sigma-Aldrich, Taufkirchen, Germany), 5.6 mM glucose and 0.05% gelatine (Merck KGaA, Darmstadt, Germany) is added. After a further incubation of 20 minutes at RT, the plates are inserted into the FLIPR for Ca^2+ measurement. Alternatively they are washed with buffer A (15 mM HEPES, 80 mM NaCl, 5 mM KCl, 1.2 mM CaCl2, 0.7 mM MgSO4, 2 g/l glucose, 2.5 mM probenecid) and loaded with buffer A with added 2.5 μM Fluo-4 and 0.025% Pluronic F127 (Sigma-Aldrich, Taufkirchen, Germany). The cells are then washed twice with buffer A and incubated for 30 minutes with buffer A, which additionally contains 0.05% BSA and 0.05% gelatine, at RT and then used for Ca^2+ measurement in the FLIPR. The Ca^2+-dependent fluorescence is measured here before and after addition of substances (λex=488 nm, λem=540 nm). The quantification is performed by measuring the highest fluorescence intensity (FC, fluorescence counts) over time.
The FLIPR protocol comprises two additions of substance. Test substances (10 μM) are first pipetted onto the cells and the Ca^2+ inflow is compared with the control (hB1R: Lys-Des-Arg^9 bradykinin >=50 nM; rB1R: Des-Arg^9 bradykinin 10 μM). The value in % activation based on the Ca^2+ signal after addition of Lys-Des-Arg^9 bradykinin (>=50 nM) or Des-Arg^9 bradykinin (10 μM) is obtained therefrom. After incubation for 10-20 minutes, Lys-Des-Arg^9 bradykinin (hB1R) or Des-Arg^9 bradykinin (rB1R) is applied in the EC80 concentration and the inflow of Ca^2+ is likewise determined.
Antagonists lead to a suppression of the Ca^2+ inflow. The % inhibition in comparison with the maximum achievable inhibition is calculated. […]

B1R of the rat = biological target: T2, B1R of the rat (Rattus norvegicus, UniProt P97583); test: FLIPR Ca2+ functional assay, B1R antagonism, rat B1R in CHO K1 cells; assay type: cell-based; conditions: test substance 10 μM; rB1R CHO K1 cells; agonist Des-Arg9 bradykinin at EC80; % of maximum achievable inhibition
T2 construct: expressed in transfected cells; host or cells: CHO K1 cells (Chinese hamster ovary), stably transfected
T2 sequence (P97583 1-337): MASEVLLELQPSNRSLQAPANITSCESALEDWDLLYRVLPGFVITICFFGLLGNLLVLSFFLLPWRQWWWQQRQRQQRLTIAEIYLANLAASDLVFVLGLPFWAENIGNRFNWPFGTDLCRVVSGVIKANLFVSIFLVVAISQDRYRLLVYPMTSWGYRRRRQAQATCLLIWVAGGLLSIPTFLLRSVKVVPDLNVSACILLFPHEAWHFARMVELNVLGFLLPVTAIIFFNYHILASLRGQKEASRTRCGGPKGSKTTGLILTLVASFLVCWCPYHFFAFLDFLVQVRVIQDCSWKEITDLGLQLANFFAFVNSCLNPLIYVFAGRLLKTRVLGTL
Summary of the method: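 IC50 values come from varied compound concentrations applied 10-20 min before an EC80 agonist challenge, with Des-Arg9 bradykinin for rat and Lys-Des-Arg9 bradykinin for human receptor. Ca2+ influx in Fluo-4-loaded CHO K1 transfectants was measured by FLIPR peak fluorescence. Data are % inhibition vs maximum, n=2-3, N>=2.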

SMILES	inhibition at 10 µM (human B1R) [%]	inhibition at 10 µM (B1R of the rat) [%]
COc1cc(C)c(S(=O)(=O)N2CCn3cccc3C2CC(=O)N2CCN(C3CCN(C)CC3)CC2)c(C)c1 (stereo not shown) [Example 1, 2-(2-(4-Methoxy-2,6-dimethylphenylsulfonyl)-1,2,3,4-tetrahydro-pyrrolo[1,2-a]pyrazin-1-yl)-1-(4-(1-methylpiperidin-4-yl)piperazin-1-yl)ethanone]	94.8	100
COc1cc(C)c(S(=O)(=O)N2CCn3cccc3C2COCC(=O)N2CCN(C3CCN(C)CC3)CC2)c(C)c1 (stereo not shown) [Example 2, 2-((2-(4-Methoxy-2,6-dimethylphenylsulfonyl)-1,2,3,4-tetrahydropyrrolo[1,2-a]pyrazin-1-yl)methoxy)-1-(4-(1-methylpiperidin-4-yl)piperazin-1-yl)ethanone]	99.9	98.9
COc1cc(C)c(S(=O)(=O)N2CCn3cccc3C2CC(=O)N2CCC3(CCN(C4CC4)C3)C2)c(C)c1 (stereo not shown) [Example 3, 1-(7-Cyclopropyl-2,7-diazaspiro[4.4]nonan-2-yl)-2-(2-(4-methoxy-2,6-dimethylphenylsulfonyl)-1,2,3,4-tetrahydropyrrolo[1,2-a]pyrazin-1-yl)ethanone]	69.6	58.8
COc1cc(C)c(S(=O)(=O)N2CCn3cccc3C2COCC(=O)N2CCC3(CC2)CCN(c2ccncc2)C3)c(C)c1 (stereo not shown) [Example 4, 2-((2-(4-Methoxy-2,6-dimethylphenylsulfonyl)-1,2,3,4-tetrahydropyrrolo[1,2-a]pyrazin-1-yl)methoxy)-1-(2-(pyridin-4-yl)-2,8-diazaspiro[4.5]decan-8-yl)ethanone]	99.8	104
O=C(COCC1c2cccn2CCN1S(=O)(=O)c1ccccc1C(F)(F)F)N1CCC(Oc2ccncc2)CC1 (stereo not shown) [Example 5, 1-(4-(Pyridin-4-yloxy)piperidin-1-yl)-2-((2-(2-(trifluoromethyl)phenylsulfonyl)-1,2,3,4-tetrahydropyrrolo[1,2-a]pyrazin-1-yl)methoxy)ethanone]	99.8	102
Cc1cccc(Cl)c1S(=O)(=O)N1CCn2cccc2C1COCC(=O)N1CCC(Oc2ccncc2)CC1 (stereo not shown) [Example 6, 2-((2-(2-Chloro-6-methylphenylsulfonyl)-1,2,3,4-tetrahydropyrrolo[1,2-a]pyrazin-1-yl)methoxy)-1-(4-(pyridin-4-yloxy)piperidin-1-yl)ethanone]	99.6	100
COc1cc(C)c(S(=O)(=O)N2CCn3cccc3C2COCC(=O)N(C)CCC2CCN(c3ccncc3)CC2)c(C)c1 (stereo not shown) [Example 7]	99.9	102
COc1ccc2cc(S(=O)(=O)N3CCn4cccc4C3CC(=O)NC3CCc4cc(CN5CCCCC5)ccc4C3)ccc2c1 (stereo not shown) [Example 8, 2-(2-(6-Methoxynaphthalen-2-ylsulfonyl)-1,2,3,4-tetrahydropyrrolo[1,2-a]pyrazin-1-yl)-N-(6-(piperidin-1-ylmethyl)-1,2,3,4-tetrahydronaphthalen-2-yl)acetamide]	99.9	104
COc1ccc2cc(S(=O)(=O)N3CCn4cccc4C3CC(=O)N[C@@H]3CCCc4cc(CN5CCCCC5)ccc43)ccc2c1 (stereo partly drawn) [Example 9, 2-(2-(6-Methoxynaphthalen-2-ylsulfonyl)-1,2,3,4-tetrahydropyrrolo[1,2-a]pyrazin-1-yl)-N—((R)-6-(piperidin-1-ylmethyl)-1,2,3,4-tetrahydronaphthalen-1-yl)acetamide]	99.5	103

The next lines start with the values.

inhibition at 10 µM (human B1R) [%]	inhibition at 10 µM (B1R of the rat) [%]	SMILES
99.8	103	COc1cc(C)c(S(=O)(=O)N2CCn3cccc3C2COCC(=O)N2CCC3(CC2)CCN(c2ccncc2)CC3)c(C)c1 (stereo not shown) [Example 10, 2-((2-(4-Methoxy-2,6-dimethylphenylsulfonyl)-1,2,3,4-tetrahydropyrrolo[1,2-a]pyrazin-1-yl)methoxy)-1-(9-(pyridin-4-yl)-3,9-diazaspiro[5.5]undecan-3-yl)ethanone]
99.9	98.1	O=C(COCC1c2cccn2CCN1S(=O)(=O)c1ccccc1C(F)(F)F)N1CCC2(CC1)CCN(c1ccncc1)CC2 (stereo not shown) [Example 11, 1-(9-(Pyridin-4-yl)-3,9-diazaspiro[5.5]undecan-3-yl)-2-((2-(2-(trifluoromethyl)phenylsulfonyl)-1,2,3,4-tetrahydropyrrolo[1,2-a]pyrazin-1-yl)methoxy)ethanone]
99.5	99.3	CN(CCC1CCN(c2ccncc2)CC1)C(=O)COCC1c2cccn2CCN1S(=O)(=O)c1ccccc1C(F)(F)F (stereo not shown) [Example 12, N-Methyl-N-(2-(1-(pyridin-4-yl)piperidin-4-yl)ethyl)-2-((2-(2-(trifluoromethyl)phenylsulfonyl)-1,2,3,4-tetrahydropyrrolo[1,2-a]pyrazin-1-yl)methoxy)acetamide]
100	100	COc1cc(C)c(S(=O)(=O)N2CCn3cccc3C2COCC(=O)N2CCC(Oc3ccncc3)CC2)c(C)c1 (stereo not shown) [Example 13, 2-((2-(4-Methoxy-2,6-dimethylphenylsulfonyl)-1,2,3,4-tetrahydropyrrolo[1,2-a]pyrazin-1-yl)methoxy)-1-(4-(pyridin-4-yloxy)piperidin-1-yl)ethanone]
99.9	98.3	Cc1cccc(Cl)c1S(=O)(=O)N1CCn2cccc2C1COCC(=O)N1CCC2(CC1)CCN(c1ccncc1)CC2 (stereo not shown) [Example 15, 2-((2-(2-Chloro-6-methylphenylsulfonyl)-1,2,3,4-tetrahydropyrrolo[1,2-a]pyrazin-1-yl)methoxy)-1-(9-(pyridin-4-yl)-3,9-diazaspiro[5.5]undecan-3-yl)ethanone]
